Test results published in patent US11247973B2 (The University of Durham, priority 2016, dated 2022).
Values joined by “and” are separate entries in the source; they are usually repeats but may differ in a detail not shown here. Identical values can stand only once. Like-named read-outs stand apart in the source and are kept apart here.

Legend:
Assay type in all cases: cell-based
RSV = assay: Cytopathic effect (CPE) assay; conditions: human respiratory syncytial virus, read-out: CPE IC50
Excerpt: (§1) Cells were obtained from ATCC and the virus preparation was subjected to one round of centrifugation through a 40% (V/V) glycerol to remove any interferon produced from infected cells. Growth medium was Dulbecco's modified Eagle's medium (DMEM) with 10% (v/v) foetal calf serum (FCS), Viral maintainance medium was DMEM+2% (v/v) FCS.
Cytopathic Effect (CPE) Assay—IC50:
(§2) A549 cells and HeLa cells were used to seed a set of 96 well plates grown until 50% confluent, a 2 fold serial dilution of the compound was performed on each cell line with DMSO (only) as control starting with 100 μM of the compound. Medium used was DMEM+2% FCS (normal medium for viral growth).
(§3) Cells were allowed to grow for 6-8 days to mimic a TCID50 assay after which cell viability was determined by adding Almar blur (similar to XT) and reading at 600 nm (excitation 540 nm).

[1] = Cell cytotoxicity CC50 assay (A549 and HeLa cells); conditions: human, 6-8 days, DMEM+2% FCS
Excerpt: as §1
Cell Cytotoxicity—CC50 (Concentration at which 50% Cell Toxicity is Observed):
as §2, §3

RSV A2 VR-1540 = assay: Second plaque reduction assay (HEp-2 cells); conditions: multiple values = multiple test occasions
Excerpt: as §1, with “maintenance” for “maintainance”
The RSV plaque reduction assay is an infectivity assay which allows quantification of the number of infectious units in a distinct foci of RSV infection. This is indicated by zones of viral antigen detected by specific antibody staining within a monolayer of otherwise healthy tissue culture cells. As each plaque originates from a single infectious virus particle an accurate calculation of the anti-viral effect can be obtained by counting plaques in the presence and absence of an anti-viral compound. HEp-2 cells (ATCC, CCL23) were passaged in flasks and seeded in 96-well plates in DMEM containing antibiotics and supplemented with 10% FBS. During inoculation and subsequent incubation, cells were cultured in DMEM containing 3% FBS. 100 plaque forming unit (PFU)/well of RSV (RSV A2 VR-1540) was mixed with ten serial dilutions of compound. Subsequently, 100 μL of the virus/compound mixtures was added to confluent HEp-2 cell monolayers. The cells and virus/compound mixtures were incubated at 35° C. in a humidified 5% CO2 incubator for 1 day.
Cells were washed twice with PBS before adding 50% v/v EtOH/MeOH, and then stored at −20° C. On the day of the staining, fixative was first removed from the plates. Plates were washed 3× with PBS. A pre-titrated amount of the primary antibody was added in 60 μL PBS/2% milk powder, and plates incubated for 1 h at rt. The plates were washed 3× with PBS/0.05% Tween20 before addition of goat anti-mouse horse radish peroxidase in 60 μL PBS/2% milk powder, and incubated for 1 h at rt. Following three wash steps with PBS/0.05% Tween20, 60 μL ready-to-use TrueBlue was added and plates were incubated at rt for 10-15 min before adding MilliQ water. Plates were washed once with water, incubated for 30-60 min and after removal of water, air-dried in the dark.
Plates were scanned and analyzed using the Immunospot S6 UV analyzer, which is equipped with BioSpot analysis software for counting immunostained plaques (virospots). Plaque counts were used to calculate % infection relative to the mean of the spot count (SC) in the virus control wells for RSV. IC50/IC90 values were calculated as 50% or 90% reduction in signal, respectively, by interpolation of inhibition curves fitted with a 4-parameter nonlinear regression with a variable slope in GraphPad 5.0 (Prism).

HepG2 cells = assay: Cell cytotoxicity CC50, HepG2 cells (CellTox Green); conditions: 48-hour incubation, multiple values = multiple test occasions, read-out: Tox CC50
Procedure: (§4) HepG2 cells, in media supplemented with 10% fetal bovine serum (FBS), were seeded at […] into white walled 96 well plates and incubated at 37° C., 5% CO2. Twenty-four hours post seeding media was removed and replaced with media supplemented with 2% FBS and containing final compound concentrations equal to those tested in parallel virus plaque assays. Following a further 48-hour incubation cell cytotoxicity was determined using the CellTox™ Green (Promega) kit and […] read using an appropriate protocol on a GloMax® Explorer System (Promega). During analysis DMSO containing wells were used as a negative control and lysed cells as a positive control.

[2] = as above; conditions: human, 48-hour incubation, multiple values = multiple test occasions, read-out: Tox CC50
Procedure: as §4

[3] = human respiratory syncytial virus, HEp-2, 24 h, read-out: Plaque IC50, HEp-2 cells, RSV A2, 1 day
[4] = read-out: Plaque IC50, HEp-2 cells, RSV A2, 1 day

**Q.** For `O=C(CNc1ccccc1)N[C@H]1N=C(c2ccccc2)c2ccccc2NC1=O` [Compound 1, N-{(3S)-2-oxo-5-phenyl-2,3-dihydro-1H-1,4-benzodiazepin-3-yl](phenylamino)acetamide], which IC50 (RSV; A549 cells and HeLa cells, 6-8 days, DMEM+2% FCS) is on record?
**A.** 2.5 µM

**Q.** What about the CC50 [1] of the same compound?
**A.** 25 µM

**Q.** Which IC50 (RSV) does the source give for `CCOc1nc(F)c(F)c(NCC(=O)N[C@H]2N=C(c3ccccc3)c3ccccc3NC2=O)c1F` [Compound 4, 2-[(2-ethoxy-3,5,6-trifluoropyridin-4-yl)amino]-N-{(3S)-2-oxo-5-phenyl-2,3-dihydro-1H-1,4-benzodiazepin-3-yl]acetamide] here?
**A.** 2.5 µM

**Q.** What about the CC50 [1] of the same compound?
**A.** > 100 µM

**Q.** With `O=C1Nc2ccccc2C(c2ccccc2)=N[C@@H]1NC(=O)[C@H]1CCCN1c1c(F)c(F)nc(F)c1F` [Compound 6, N(2R)-N-[(3S)-2-oxo-5-phenyl-2,3-dihydro-1H-1,4-benzomazepin-3-yl]-1-(2,3,5,6-tetrafluoropyridin-4-yl)pyrrolidine-2-carboxamide] as the compound, how does the IC50 (RSV A2 VR-1540; HEp-2 cells, RSV A2, 1 day, read-out: Plaque IC50) read?
**A.** 4.39 µM and 8.33 µM

**Q.** What about the CC50 (HepG2 cells) of the same compound?
**A.** > 25 µM

**Q.** Which IC50 (RSV A2 VR-1540; [3]) does the source give for `CC(C)[C@H](Nc1c(F)c(F)nc(F)c1F)C(=O)N[C@H]1N=C(c2ccccc2)c2ccccc2NC1=O` [Compound 7, (2S)-3-Methyl-N-[(3S)-2-oxo-5-phenyl-2,3-dihydro-1H-1,4-benzodiazepin-3-yl]-2-[(2,3,5,6-tetrafluoropyridin-4-yl)amino]butanamide] here?
**A.** 5.18 µM

**Q.** What about the IC50 (RSV A2 VR-1540; [4]) of the same compound?
**A.** 8.68 µM and 10 µM

**Q.** And the CC50 at 48 h [2]?
**A.** 16 µM

**Q.** And the CC50 (HepG2 cells)?
**A.** > 25 µM

**Q.** For `CC(C)[C@@H](Nc1c(F)c(F)nc(F)c1F)C(=O)N[C@H]1N=C(c2ccccc2)c2ccccc2NC1=O` [Compound 8, (2R)-3-Methyl-N-[(3S)-2-oxo-5-phenyl-2,3-dihydro-1H-1,4-benzodiazepin-3-yl]-2-[(2,3,5,6-tetrafluoropyridin-4-yl)amino]butanamide], which CC50 at 48 h [2] is on record?
**A.** > 25 µM

**Q.** What about the CC50 (HepG2 cells) of the same compound?
**A.** 16.3 µM

**Q.** Which results are given for `C[C@H](Nc1c(F)c(F)nc(F)c1F)C(=O)N[C@H]1N=C(c2ccccc2)c2ccccc2NC1=O` [Compound 9, (2S)-N-[(3S)-2-oxo-5-phenyl-1,3-dihydro-1,4-benzodiazepin-3-yl]-2-[(2,3,5,6-tetrafluoropyridin-4-yl)amino]propanamide]?
**A.** IC50 (RSV A2 VR-1540; [3]): 5.22 µM; IC50 (RSV A2 VR-1540; [4]): 3.76 µM; CC50 at 48 h [2]: > 25 µM

**Q.** For `C[C@@H](Nc1c(F)c(F)nc(F)c1F)C(=O)N[C@H]1N=C(c2ccccc2)c2ccccc2NC1=O` [Compound 10, (2R)-N-[(3S)-2-oxo-5-phenyl-1,3-dihydro-1,4-benzodiazepin-3-yl]-2-[(2,3,5,6-tetrafluoropyridin-4-yl)amino]propanamide], which IC50 (RSV A2 VR-1540; [3]) is on record?
**A.** 3.38 µM

**Q.** What about the IC50 (RSV A2 VR-1540; [4]) of the same compound?
**A.** 1.79 µM

**Q.** And the CC50 at 48 h [2]?
**A.** > 25 µM

**Q.** Which CC50 (HepG2 cells) does the source give for `O=C(N[C@H]1N=C(c2ccccc2)c2ccccc2NC1=O)[C@H](Cc1ccccc1)Nc1c(F)c(F)nc(F)c1F` [Compound 11] here?
**A.** > 25 µM

**Q.** For `O=C(CNc1nc(F)c(F)c(N2CCOCC2)c1F)N[C@H]1N=C(c2ccccc2)c2ccccc2NC1=O` [Compound 14, N-[(3S)-2-oxo-5-phenyl-2,3-dihydro-1H-1,4-benzodiazepin-3-yl]-2-{[3,5,6-trifluoro-4-(morpholin-4-yl)pyridin-2-yl]amino}acetamide], which CC50 at 48 h [2] is on record?
**A.** > 25 µM

**Q.** With `O=C(CNc1cc(Cl)ncn1)N[C@H]1N=C(c2ccccc2)c2ccccc2NC1=O` [Compound 18, 2-[(6-Chloropyrimidin-4-yl)amino]-N-[(3S)-2-oxo-5-phenyl-2,3-dihydro-1H-1,4-benzodiazepin-3-yl]acetamide] as the compound, how does the IC50 (RSV A2 VR-1540; [3]) read?
**A.** 4.93 µM

**Q.** And the IC50 (RSV A2 VR-1540; [4])?
**A.** 9.33 µM

**Q.** And the CC50 at 48 h [2]?
**A.** > 25 µM
